In BindingDB's records for doi:10.1021/jm970550g (Northwestern University, 1998):

Assay: Compound was tested for binding affinity against neuronal nitric oxide synthase(nNOS)

First: C=CCNC(=N)NCCCC(N)C(C)=O (stereo not drawn) [1-Acetyl-4-(N'-allyl-guanidino)-butyl-ammonium]
Second: CCNC(=N)NCCCC(N)C(=O)O (stereo not drawn) [2-Amino-5-(N'-ethyl-guanidino)-pentanoic acid]
The Ki of the first is 80-fold lower: 200 nM for the first, 16000 nM for the second. The first binds more tightly here.

For `C#CCNC(=N)NCCCC(N)C(=O)O` (stereo not drawn) [2-Amino-5-(N'-prop-2-ynyl-guanidino)-pentanoic acid], the Ki was 430 nM.
